Results published in EP4722219A1 (Gan & Lee Pharmaceuticals Co., Ltd., priority 2023, dated 2024).

Experiments:
Format in all cases: cell-based
[1] = tested on: T-47D cells; experiment: Inhibition of cell proliferation in T-47D cells (CCK-8); conditions: 6 days treatment, CCK-8 cell viability
Procedure, shortened: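 T-47D cells (3,000/well) in RPMI-1640 with 10% FBS were exposed to a concentration range of PROTAC compounds for 6 days at 37 °C, 5% CO2. Viability read by CCK-8; IC50 fitted from inhibition rate.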

[2] = tested on: MCF-7 cells; experiment: Inhibition of cell proliferation in MCF-7 cells (CCK-8); conditions: MCF-7 cell proliferation, 6 days treatment
Procedure, shortened: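 MCF-7 cells, 800 per well in DMEM plus 10% FBS, exposed to graded PROTAC concentrations for 6 days at 37 °C, 5% CO2. Viability by CCK-8; IC50 fitted from inhibition rates.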

[3] = target: T1, ERα (Homo sapiens, UniProt P03372); experiment: ERα degradation in T-47D cells (Western blot); conditions: 4 hours
T1 sequence (P03372 1-595): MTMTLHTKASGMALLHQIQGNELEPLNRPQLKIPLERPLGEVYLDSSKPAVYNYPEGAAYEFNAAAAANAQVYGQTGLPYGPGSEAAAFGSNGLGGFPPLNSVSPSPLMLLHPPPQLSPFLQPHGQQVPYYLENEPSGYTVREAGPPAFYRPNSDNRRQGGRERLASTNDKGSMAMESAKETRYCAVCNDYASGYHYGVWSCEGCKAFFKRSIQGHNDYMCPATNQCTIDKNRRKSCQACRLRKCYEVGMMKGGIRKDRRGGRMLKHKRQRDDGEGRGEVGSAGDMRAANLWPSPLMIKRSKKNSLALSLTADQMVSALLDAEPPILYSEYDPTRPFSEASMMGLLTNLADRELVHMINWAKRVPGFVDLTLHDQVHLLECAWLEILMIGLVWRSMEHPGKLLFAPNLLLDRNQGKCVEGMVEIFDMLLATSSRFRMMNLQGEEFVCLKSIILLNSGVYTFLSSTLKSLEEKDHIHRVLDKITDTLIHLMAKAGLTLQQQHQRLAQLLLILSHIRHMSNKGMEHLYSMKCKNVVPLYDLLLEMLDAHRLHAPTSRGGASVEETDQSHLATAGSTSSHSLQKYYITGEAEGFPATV
Procedure, shortened: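 T-47D cells at 3×10^5 cells/well were exposed to compound (final 0.15-1000 nM, DMSO) for 4 hours at 37°C and then lysed in RIPA. ERα was measured by Western blot (20 µg protein) with infrared imaging. The degradation rate was calculated from ERα/internal-reference grayscale ratios relative to control.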

[4] = target: T1, ERα; experiment: ERα degradation in MCF-7 cells (Western blot); parameters: host or cells: MCF-7; conditions: 4 hours
Procedure, shortened: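 MCF-7 cells treated 4 h at 37 °C with compound at 0.15–1000 nM final. ERα in lysates measured by Western blot (20 µg protein), normalized to an internal reference protein; degradation rate calculated against control.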

Row | Structure (SMILES) | IC50 ([1]; Homo sapiens, T47D, 144 h) [nM] | IC50 ([2]; Homo sapiens, MCF7, 144 h) [nM] | Degradation rate of ERα in T-47D cells (%) ([3]; 1nM) | Degradation rate of ERα in T-47D cells (%) ([3]; 10nM) | Degradation rate of ERα in MCF-7 cells (%) ([4]; 1nM) | Degradation rate of ERα in MCF-7 cells (%) ([4]; 10nM) | IC50 [1] [nM] | IC50 [2] [nM]
1 | O=C1CC[C@H](NC(=O)c2ccc3c(c2F)OCC32CCN(CC3CCN(c4ccc([C@@H]5c6ccc(O)cc6CC[C@@H]5c5ccccc5)cc4)CC3)CC2)C(=O)N1 [ER-P-42, N-((S)-2,6-dioxopiperidin-3-yl)-7-fluoro-1'-((1-(4-((1R,2S)-6-hydroxy-2-phenyl-1,2,3,4-tetrahydronaphthalen-1-yl)phenyl)piperidin-4-yl)methyl)-2H-spiro[benzofuran-3,4'-piperidine]-6-carboxamide] | 10.4 | 4500 | -27 | -28 | -20 | -3 | – | –
2 | O=C1CC[C@H](NC(=O)c2ccc3c(c2F)OCC32CCN(C3CCC4(CC3)CCN(c3ccc([C@@H]5c6ccc(O)cc6CC[C@@H]5c5ccccc5)cc3)CC4)CC2)C(=O)N1 [ER-P-39, N-((S)-2,6-dioxopiperidin-3-yl)-7-fluoro-1'-(3-(4-((1R,2S)-6-hydroxy-2-phenyl-1,2,3,4-tetrahydronaphthalen-1-yl)phenyl)-3-azaspiro[5.5]undecan-9-yl)-2H-spiro[benzofuran-3,4'-piperidine]-6-carboxamide] | 14.2 | 526 | -7 | -3 | -13 | -16 | – | –
3 | C[C@@H]1Cc2cc(O)ccc2C(c2c(F)cc(N3CCC4(CCC(N5CCC6(CC5)COc5c6ccc6c5n(C)c(=O)n6C5CCC(=O)NC5=O)CC4)CC3)cc2F)N1CC(F)F (stereo partly drawn) [ER-P-29, 3-(1'-(3-(4-((3R)-2-(2,2-difluoroethyl)-6-hydroxy-3-methyl-1,2,3,4-tetrahydroisoquinolin-1-yl)-3,5-difluorophenyl)-3-azaspiro[5.5]undecan-9-yl)-1-methyl-2-oxo-1,2-dihydro-3H,7H-spiro[benzofuro[6,7-d]imidazole-6,4'-piperidin]-3-yl)piperidine-2,6-dione] | 0.92 | 140 | 53 | 41 | 54 | 25 | – | –
4 | O=C1CCC(Nc2ccc3c(c2)OC2(CC3)CN(C[C@H]3CC[C@@H](OC4CCN(c5ccc([C@@H]6c7ccc(O)cc7CC[C@@H]6c6ccccc6)cc5)CC4)CC3)C2)C(=O)N1 (stereo partly drawn) [ER-P-33, 3-((1-(((1S,4s)-4-((1-(4-((1R,2S)-6-hydroxy-2-phenyl-1,2,3,4-tetrahydronaphthalen-1-yl)phenyl)piperidin-4-yl)oxy)cyclohexyl)methyl)spiro[azetidine-3,2'-chroman]-7'-yl)amino)piperidine-2,6-dione] | 15.5 | 2330 | -16 | 32 | -5 | -9 | – | –
5 | COc1c(C(=O)N[C@H]2CCC(=O)NC2=O)ccc2c1OC[C@H]1CN(CC3CCC(OC4CCN(c5ccc([C@@H]6c7ccc(O)cc7CC[C@@H]6c6ccccc6)cc5)CC4)CC3)CCN21 (stereo partly drawn) [ER-P-48, (R)-N-((S)-2,6-dioxopiperidin-3-yl)-3-(((1S,4S)-4-((1-(4-((1R,2S)-6-hydroxy-2-phenyl-1,2,3,4-tetrahydronaphthalen-1-yl)phenyl)piperidin-4-yl)oxy)cyclohexyl)methyl)-7-methoxy-1,2,3,4,4a,5-hexahydrobenzo[b]pyrazi no[1,2-d][1,4]oxazine-8-carboxamide] | – | – | 6 | 0 | 13 | -1 | 115 | 7390
6 | Cn1c(=O)n(C2CCC(=O)NC2=O)c2ccc3c(c21)OCC31CCN(CC2CCN(C(=O)C3CCN(c4ccc([C@@H]5c6ccc(O)cc6CC[C@@H]5c5ccccc5)cc4)CC3)CC2)CC1 (stereo partly drawn) [ER-P-63, 3-(1'-((1-(1-(4-((1R,2S)-6-hydroxy-2-phenyl-1,2,3,4-tetrahydronaphthalen-1-yl)phenyl)piperidine-4-carbonyl)piperidin-4-yl)methyl)-1-methyl-2-oxo-1,2-dihydro-3H,7H-spiro[benzofuro[6,7-d]imidazole-6,4'-piperidin]-3-yl)piperidine-2,6-dione] | 1.15 | 3750 | 56 | 65 | 53 | 56 | – | –
7 | Cn1c(=O)n(C2CCC(=O)NC2=O)c2ccc3c(c21)OCC31CCN(C2CC3(CCN(c4ccc([C@@H]5c6ccc(O)cc6CC[C@@H]5c5ccccc5)cc4)CC3)C2)CC1 (stereo partly drawn) [ER-P-17, 3-(1'-(7-(4-((1R,2S)-6-hydroxy-2-phenyl-1,2,3,4-tetrahydronaphthalen-1-yl)phenyl)-7-azaspiro[3.5]nonan-2-yl)-1-methyl-2-oxo-1,2-dihydro-3H,7H-spiro[benzofuro[6,7-d]imidazole-6,4'-piperidin]-3-yl)piperidine-2,6-dione] | – | – | 22 | 30 | 37 | 33 | 20.9 | 4560
8 | O=C1CCC(Nc2ccc3c(c2)COC[C@H]2CN(CC4CCC(OC5CCN(c6ccc([C@@H]7c8ccc(O)cc8CC[C@@H]7c7ccccc7)cc6)CC5)CC4)CCN32)C(=O)N1 (single isomer, unassigned) [ER-P-50] | 45.6 | – | 4 | 18 | 1 | 9 | – | 3270
9 | O=C1CCC(n2c(=O)n3c4c(cccc42)N(C[C@H]2CC[C@@H](OC4CCN(c5ccc([C@@H]6c7ccc(O)cc7CC[C@@H]6c6ccccc6)cc5)CC4)CC2)CC3)C(=O)N1 (stereo partly drawn) [ER-P-56, 3-(6-(((1S,4s)-4-((1-(4-((1R,2S)-6-hydroxy-2-phenyl-1,2,3,4-tetrahydronaphthalen-1-yl)phenyl)piperidin-4-yl)oxy)cyclohexyl)methyl)-2-oxo-5,6-dihydro-4H-imidazo[1,5,4-de]quinoxalin-1(2H)-yl)piperidine-2,6-dione] | 42.2 | 2460 | 22 | 24 | -4 | 16 | – | –
10 | Cn1c(=O)n(C2CCC(=O)NC2=O)c2ccc3c(c21)C1(CCN(C2CCC4(CC2)CN(c2ccc([C@@H]5c6ccc(O)cc6CC[C@@H]5c5ccccc5)cc2)C4)CC1)CO3 (stereo partly drawn) [ER-P-19, 3-(1'-(2-(4-((1R,2S)-6-hydroxy-2-phenyl-1,2,3,4-tetrahydronaphthalen-1-yl)phenyl)-2-azaspiro[3.5]nonan-7-yl)-1-methyl-2-oxo-1,2-dihydro-3H,7H-spiro[benzofuro[4,5-d]imidazole-8,4'-piperidin]-3-yl)piperidine-2,6-dione] | 10.3 | 4460 | 6 | 15 | -8 | 7 | – | –
11 | C[C@@H]1Cc2cc(O)ccc2C(c2c(F)cc(N3CCC(C(=O)N4CCC(N5CCC6(CC5)COc5c6ccc6c5n(C)c(=O)n6C5CCC(=O)NC5=O)CC4)CC3)cc2F)N1CC(F)F (stereo partly drawn) [ER-P-30, 3-(1'-(1-(1-(4-((3R)-2-(2,2-difluoroethyl)-6-hydroxy-3-methyl-1,2,3,4-tetrahydroisoquinolin-1-yl)-3,5-difluorophenyl)piperidine-4-carbonyl)piperidin-4-yl)-1-methyl-2-oxo-1,2-dihydro-3H,7H-spiro[benzofuro[6,7-d]imidazole-6,4'-piperidin]-3-yl)piperidine-2,6-dione] | 2.42 | 4960 | 47 | 17 | 42 | 14 | – | –
